{"source": "patent US20100226886A1", "about": "“Combinations of MTP Inhibitors with Cholesterol Absorption Inhibitors or Interferon for Treating Hepatitis C” (priority 2007, published 2010)", "origin": "cited, not measured here", "key": {"[1]": {"conditions": "in vivo"}, "[2]": {"conditions": "clinical studies, 80 mg/day or greater"}, "[3]": {"conditions": "animal model for homozygous familial hypercholesterolemia; for example at 25 mg/day"}}, "note": "“Also recorded” adds a separate entry of the source. Read-outs that look alike come from different tables or passages of the source."}
{"compound": "Alpha interferon", "values": [{"measurement": "side effects in patients", "setting": "[1]", "result": "multiple neuropsychiatric effects"}]}
{"compound": "NC(=O)c1ncn([C@@H]2O[C@H](CO)[C@@H](O)[C@H]2O)n1", "note": "[ribavirin]", "values": [{"measurement": "increase of sustained response rate", "setting": "HCV; ribavirin added to interferon or peginterferon", "result": "two- to three-fold"}, {"measurement": "effect on HCV", "setting": "HCV; ribavirin by itself", "result": "little effect on HCV"}, {"measurement": "side effects in patients", "setting": "[1]", "result": "red cell haemolysis to a variable degree in almost all patients"}]}
{"compound": "Cc1cc(C)c2c3ccccc3n(Cc3ccc([C@@H](C(=O)N[C@H](CO)c4ccccc4)C4CCCC4)cc3)c2n1", "note": "[implitapide, (2S)-2-cyclopentyl-2-[4-[(2,4-dimethyl-9H-pyrido[2,3-b]indol-9-yl)methyl]phenyl]-N-[(1S)-2-hydroxy-1-phenylethyl]ethanamide]", "values": [{"measurement": "efficacy for hypercholesterolemia", "setting": "[2]", "result": "therapeutically effective for hypercholesterolemia"}, {"measurement": "adverse events", "setting": "80 mg/day or greater (80 mg/day and 160 mg/day)", "result": "gastrointestinal disturbances, abnormalities in liver function, and hepatic steatosis; also recorded: gastrointestinal disorders, abnormalities in liver function and/or hepatic steatosis"}]}
{"compound": "O=C(NC1CCN(CCCCC2(C(=O)NCC(F)(F)F)c3ccccc3-c3ccccc32)CC1)c1ccccc1-c1ccc(C(F)(F)F)cc1", "note": "[BMS-201038, N-(2,2,2-Trifluorethyl)-9-[4-[4-[[[4′-(trifluoromethyl) [1,1′biphenyl]-2-Yl]carbonyl]amino]-1-piperidinyl]butyl]9H-fluorene-9-carboxamide]", "values": [{"measurement": "adverse events", "setting": "25 mg/day", "result": "gastrointestinal disturbances, abnormalities in liver function, and hepatic steatosis"}, {"measurement": "adverse events", "setting": "25 mg/day, listed as AEGR-733", "result": "gastrointestinal disorders, abnormalities in liver function and/or hepatic steatosis"}, {"measurement": "plasma cholesterol levels", "setting": "[3]", "result": "effectively reduced plasma cholesterol levels in a dose dependent manner"}]}
